Source: patent publication US20220133783A1 (priority 2020, published 2022)
“And” between values parts separate entries of the source, which are not always exact repeats. Equal values may be shown once.

How the values were obtained:
[1] = test system: VSV pseudo typed with SARS-CoV2 Spike protein (rVSG-dG 2019-CoV-2-18AA S); assay type: cell-based
[2] = test system: virus; conditions: cited from earlier work
[3] = test system: Human coronavirus 229E; assay type: cell-based; conditions: 10 min pre-treatment with 10 μg/mL
[4] = test system: MRC-5 cells

Substance	FIC of the single agent within the combination [1]	reported effect by itself on virus inhibition (antiviral concentration) [2]	human coronavirus 229E binding and replication in the MRC-5 cell line ([3]; SEM)	viral entry and cytopathic effects caused by the virus ([3]; after 48 hours of incubation, compared to controls)	cytotoxicity [4]
copper	0.10 and 0.07	300 µg/mL	–	–	–
ethyl-N-alpha-lauroyl-L-arginate HCl [ELAH]	0.10	300 µg/mL	inhibited	reduces	non-cytotoxic
